Here are results for one compound from patent publication US20050191668A1, “Methods of using peroxisome proliferator-activated receptor alpha target genes” (priority 2004, published 2005).

The test system of one assay is Pa13 gene. As to the kind of experiment: Pa13 gene expression by real-time RT-PCR in primary adipocytes. The assay is classed as cell-based, human. Conditions: about 18-20 hours, vehicle control = 100. From the text:
(§1) Human hepatocyte HuH7 cells, which are epithelial cells of liver, were obtained from Japan Health Science Research Resources Bank (Osaka, Japan). Human primary adipocytes, which are connective tissue cells specialized for the synthesis and storage of fat, were obtained from Zen-Bio, Inc (Research Triangle Park, NC). Human primary skeletal muscle cells (SKMC) were obtained from Cambrex Bio Science (Walkersville, Md.). PPARα agonists, Wy14643 (Agatha, et al, 2000, Archives of Biochemistry and Biophysics 380:353-359) and fenofibrates were obtained from Cayman Chemical (Ann Arbor, Mich.) and Sigma (St Louis, Mo.), respectively.
(§2) Human HuH7 cells were cultured in Dulbecco's Modified Eagle Medium with 10% Fetal Bovine Serum (Gibco, N.Y.). Cells were treated with charcoal-stripped, delipidated calf serum (5%) (Sigma, St Louis, Mo.) for about 4-18 hours. Then, cells were treated with different concentrations of PPARα agonist (Wy14643 or fenofibrates) for about 20-24 h. Human SKM cells were cultured in Skeletal Muscle Growth Medium (Cambrex Bio Science, Walkersville, Md.), and were treated with different concentrations of PPARα agonist (Wy14643 or fenofibrates) for about 18-20 hours. Human primary adipocytes were cultured in Preadipocyte Medium, (Cat #PM—1, Zen-Bio, Inc., Research Triangle Park, NC), and were treated with different concentrations of PPARα agonist (Wy14643 or fenofibrates) for about 18-20 hours.
Total RNA was purified from cultured cells following the protocol provided by the manufacturer (Trizon method, Invitrogen Inc. Ca). The polymerase chain reaction (PCR) primers and fluorescent probes (TagMan probes) for Pa9, Pa13, and Pa21 were designed from GenBank sequences of accession numbers W30988, AB000584, and NM_080725, respectively. The primers and probes were designed using the software PrimerDesign (Applied Biosystems, Foster City, Calif.). The PCR primers for Pa9 were SEQ ID NO: 7, (5-[…]) and SEQ ID NO: 8 (5-[…]). […] The PCR primers for Pa13 were SEQ ID NO: 10 (5-[…], T) and SEQ ID NO: 11 (5-[…] T). […] The PCR primers for Pa21 were SEQ ID NO: 13 (5-[…] C) and SEQ ID NO: 14 (5-[…]). […] All primers and probes were synthesized by Keystone Labs (Camarillo, Calif.).
(§3) Reverse transcription (RT) and PCR were conducted in one step using “One-Step RT-PCR Master Mix Reagent” kit (Applied Biosystems, Foster City, Calif.) in ABI PRISM 7700 Sequence Detection System (Applied Biosystems). Each reaction was performed in a total volume of 25 μl containing 40 ng of total RNA. The reaction condition was: 48° C. for 30 minutes, 60° C. for 30 minutes, 94° C. for 5 minutes, followed by 40 cycles of 94° C. for 20 seconds and 60° C. for 1 minute. The primers for 18S ribosomal RNA were developed and provided by Applied Biosystems. The measurement of human 18S ribosomal RNA was used as an internal control for normalization of measuring and loading errors. PCR data were collected by Ct value (the cycle number at which logarithmic PCR plots cross a calculated threshold line) according to the manufacturer's guidelines and the value was used to determine the Δ^Ct (Ct of the target gene minus the Ct of 18S ribosomal RNA controls). Relative mRNA level was calculated using the equation 2^−ΔΔCt as described previously (Heid et al., 1996, Genome Res. 6:986-994).
A general note: Quantitative PCR measures a nucleic acid by following its amplification.

The test system of assay [1] is murine FIAF (fasting induced adipose factor). Conditions: PPARα wild type mouse liver cells; cited from earlier work.
In assay [2] the test system is Pa9 gene. As to the kind of experiment: Pa9 gene expression by real-time RT-PCR in primary adipocytes. It is filed as cell-based, human. To be noted: about 18-20 hours, vehicle control = 100.
Description: as §1, §2
Total RNA was purified from cultured cells following the protocol provided by the manufacturer (Trizon method, Invitrogen Inc. Ca). The polymerase chain reaction (PCR) primers and fluorescent probes (TagMan probes) for Pa9, Pa13, and Pa21 were designed from GenBank sequences of accession numbers W30988, AB000584, and NM_080725, respectively. The primers and probes were designed using the software PrimerDesign (Applied Biosystems, Foster City, Calif.). The PCR primers for Pa9 were SEQ ID NO: 7, (5-[…]) and SEQ ID NO: 8 (5-[…]). […] The PCR primers for Pa13 were SEQ ID NO: 10 (5-[…], T) and SEQ ID NO: 11 (5-[…] T). […] The PCR primers for Pa21 were SEQ ID NO: 13 (5-[…] C) and SEQ ID NO: 14 (5-[…]). […]
Reverse transcription (RT) and PCR were conducted in one step using “One-Step RT-PCR Master Mix Reagent” kit (Applied Biosystems, Foster City, Calif.) in ABI PRISM 7700 Sequence Detection System (Applied Biosystems). […] PCR data were collected by Ct value (the cycle number at which logarithmic PCR plots cross a calculated threshold line) according to the manufacturer's guidelines and the value was used to determine the Δ^Ct (Ct of the target gene minus the Ct of 18S ribosomal RNA controls). Relative mRNA level was calculated using the equation 2^−ΔΔCt as described previously (Heid et al., 1996, Genome Res. 6:986-994).

For the next assay, the system named is human FDRG gene. As to the kind of experiment: FDRG gene expression by real-time RT-PCR in primary skeletal muscle cells. It is filed as cell-based. To be noted: Veh = 1.00, same RNA sample. Here is the method:
as §3
The nucleotide sequence of the human FDRG gene (AX278133) is provided in SEQ ID NO: 1 and the sequence alignment between W30988 and FDRG gene is shown in FIG. 1. […] Quantitative real-time RT-PCR was performed to test whether gene expression of the human FDRG gene is regulated by PPARα. […]

For assay [3], the system named is Pa9 gene. Put plainly: Pa9 gene expression in SKM cells with or without siRNA-reduced PPARα expression. It is filed as cell-based, human. The text has this: SiRNA oligos specific to PPARα were designed and used to knock-down or reduce the expression level of PPARα in human SKMU cells following procedures known to those skilled in the art (Brummelkamp et al., 2002, Science, 296: 550-553). Four sets of siRNA oligo were originally designed using GenBank accession number S74349 (human peroxisome proliferator activated receptor alpha, cDNA; PPARα) as the template, and the software, Target Finder (Ambion, Austin, Tex.). […] The sequences for the two sets of siRNA correspond to 907 bp to 927 bp (SEQ ID NO: 21, 5′-[…] A) and 1106 bp to 1126 bp of the cDNA (SEQ ID NO: 22, 5′-[…] T) relative to the first nucleotide of the start codon. The oligos were chemically synthesized by Ambion Inc. (Austin, Tex.). The universal negative control siRNA oligo was purchased from Ambion.
Human primary skeletal muscle cells (hSKM, provided by Cambrex, Md.) were prepared the day before transfection at the density of 4.67×10^4 cells/per 60 mm dish (about 20% confluence). The cells were cultured at 37° C., 5% CO2 for 24 hrs with antibiotics-free SKGM medium (Cambrex, Md.).
Transfection of siRNAs into the cultured cells was carried out following the manufacturer's instruction. Briefly, before the transfection, siPORT Amine (Ambion, Tex.) was first diluted with SKGM medium free of antibiotics and serum (10 μl siPORT/ml), followed by adding siRNA (50 nM) into the mixture. SKM cells (prepared in advance in multiple dishes) were transfected with 2 ml of the mixture for 4 hrs. Additional 8 ml of fresh SKGM medium (without antibiotics) were added into each dish to maximize cell growth and reduce potential cytotoxicity caused by the transfection reagent. As controls, the cells were also transfected with siPORT Amine alone or siPORT Amine plus universal negative control siRNA.
Again, total RNA was isolated from the cells and real-time PCR was performed and the expression levels of target genes of interest, such as Pa9, 13 and 21, were quantitatively measured using the RT-PCR technique described in Example 1.

Take `Cc1cccc(Nc2cc(Cl)nc(SCC(=O)O)n2)c1C` [Wy14643]: the “Pa13 (N26311) gene expression, Percentage ± SE (%)” value in the assay with Pa13 gene (10 uM) stood at 56 ± 10%; with Pa13 gene (50 uM), 55 ± 2%; in the assay with Pa13 gene (250 uM), 214 ± 7.9%. In addition, the “expression of murine FIAF” value in assay [1] is recorded as “increased”. Further, the “Pa9 (W38098) gene expression, Percentage ± SE (%)” value in the assay on Pa9 gene [2] (10 uM) is listed as 124 ± 7.2%; in the assay on Pa9 gene [2] (50 uM), 358 ± 6.9%; with Pa9 gene [2] (250 uM), 437 ± 17.3%. Also, the “FDRG gene expression, Fold of Induction” value with human FDRG gene (30 uM) was 4.37 fold; in the assay with human FDRG gene (100 uM), 7.8 fold; with human FDRG gene (100 uM, listed as WY14643) it was 7.80 fold. The “increase of Pa9 gene expression” value in the assay on Pa9 gene [3] (SKM cells with reduced gene expression of PPARα (siRNA), 16 hrs treatment) was found to be 2.35 fold. In addition, in the assay on Pa9 gene [3] (SKM cells without reduced expression level of PPARα, 16 hrs treatment), the “induction of Pa9 gene expression” value amounted to 33.48 fold. For the same compound, the “induction of Pa9 gene expression (FIG. 5)” value with Pa9 gene [3] (SKMU cells with reduced PPARα expression) is on record as “decreased induction”.
